Assay results reported in ChEMBL document CHEMBL3593240, “Structure-based development of nitroxoline derivatives as potential multifunctional anti-Alzheimer agents” (Bioorg Med Chem, 2015).
Calls of active or inactive are those of the source. No cut-off for these calls is given here.

Key:
[1] = Solubility of the compound at 30 uM; format: physicochemical
Cholinesterase [2] = molecular target: T1, Cholinesterase (Homo sapiens, UniProt P06276); test: Inhibition of human recombinant BChE using butyrylthiocholine iodide as substrate assessed as residual activity at 30 uM after 5 mins by Ellman's method relative to control
T1 sequence (P06276 whole entry): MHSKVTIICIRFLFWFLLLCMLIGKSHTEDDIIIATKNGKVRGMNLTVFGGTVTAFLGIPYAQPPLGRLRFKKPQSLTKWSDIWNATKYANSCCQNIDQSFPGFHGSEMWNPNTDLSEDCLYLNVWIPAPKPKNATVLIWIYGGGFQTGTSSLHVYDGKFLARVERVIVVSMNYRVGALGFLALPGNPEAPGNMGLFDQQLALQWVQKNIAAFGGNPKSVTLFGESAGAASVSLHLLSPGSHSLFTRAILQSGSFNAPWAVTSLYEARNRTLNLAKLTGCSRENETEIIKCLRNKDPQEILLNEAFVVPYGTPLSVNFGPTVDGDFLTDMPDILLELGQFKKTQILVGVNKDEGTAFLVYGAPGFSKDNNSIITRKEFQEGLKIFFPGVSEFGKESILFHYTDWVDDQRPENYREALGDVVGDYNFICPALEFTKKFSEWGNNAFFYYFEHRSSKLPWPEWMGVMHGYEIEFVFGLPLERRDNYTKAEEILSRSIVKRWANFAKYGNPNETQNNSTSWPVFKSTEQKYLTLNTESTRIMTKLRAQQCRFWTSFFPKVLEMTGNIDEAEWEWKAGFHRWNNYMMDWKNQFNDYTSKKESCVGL

[3] = molecular target: T2, Acetylcholinesterase (Mus musculus) (UniProt P21836); test: Inhibition of […] iodide as substrate assessed as residual activity at 30 uM after 5 mins by Ellman's method relative to control
T2 sequence (whole entry): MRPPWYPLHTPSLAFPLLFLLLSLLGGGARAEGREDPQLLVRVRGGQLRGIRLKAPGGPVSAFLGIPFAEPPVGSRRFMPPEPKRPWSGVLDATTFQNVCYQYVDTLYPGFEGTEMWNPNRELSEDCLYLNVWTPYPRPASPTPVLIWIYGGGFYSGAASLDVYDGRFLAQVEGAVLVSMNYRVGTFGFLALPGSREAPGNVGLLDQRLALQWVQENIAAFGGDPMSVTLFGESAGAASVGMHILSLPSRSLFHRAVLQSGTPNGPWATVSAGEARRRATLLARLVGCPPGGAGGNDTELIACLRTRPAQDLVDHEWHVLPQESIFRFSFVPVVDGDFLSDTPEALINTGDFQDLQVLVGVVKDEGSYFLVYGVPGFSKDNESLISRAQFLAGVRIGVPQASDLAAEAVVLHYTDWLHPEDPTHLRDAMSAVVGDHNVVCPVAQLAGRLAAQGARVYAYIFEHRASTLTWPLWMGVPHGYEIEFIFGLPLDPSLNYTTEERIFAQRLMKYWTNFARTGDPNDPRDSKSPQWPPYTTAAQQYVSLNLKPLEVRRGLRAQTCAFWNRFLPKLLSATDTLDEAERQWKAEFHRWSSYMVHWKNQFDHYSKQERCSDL

[4] = Antioxidant activity assessed as DPPH radical scavenging activity; format: physicochemical
[5] = Metal chelating activity of the compound assessed as Zn2+ complex formation at 30 uM after 10 mins by UV-vis spectrometry; format: physicochemical
[6] = Metal chelating activity of the compound assessed as Cu2+ complex formation at 30 uM after 10 mins by UV-vis spectrometry; format: physicochemical
[7] = Metal chelating activity of the compound assessed as Fe2+ complex formation at 30 uM after 10 mins by UV-vis spectrometry; format: physicochemical
[8] = Metal chelating activity of the compound assessed as Co2+ complex formation at 30 uM after 10 mins by UV-vis spectrometry; format: physicochemical
[9] = molecular target: Amyloid-beta precursor protein (Homo sapiens) (UniProt P05067); test: Inhibition of human recombinant amyloid beta (1 to 42) self aggregation at 10 uM after 12 hrs by dot-blot assay
Amyloid-beta precursor protein (Homo sapiens), sequence (P05067 whole entry): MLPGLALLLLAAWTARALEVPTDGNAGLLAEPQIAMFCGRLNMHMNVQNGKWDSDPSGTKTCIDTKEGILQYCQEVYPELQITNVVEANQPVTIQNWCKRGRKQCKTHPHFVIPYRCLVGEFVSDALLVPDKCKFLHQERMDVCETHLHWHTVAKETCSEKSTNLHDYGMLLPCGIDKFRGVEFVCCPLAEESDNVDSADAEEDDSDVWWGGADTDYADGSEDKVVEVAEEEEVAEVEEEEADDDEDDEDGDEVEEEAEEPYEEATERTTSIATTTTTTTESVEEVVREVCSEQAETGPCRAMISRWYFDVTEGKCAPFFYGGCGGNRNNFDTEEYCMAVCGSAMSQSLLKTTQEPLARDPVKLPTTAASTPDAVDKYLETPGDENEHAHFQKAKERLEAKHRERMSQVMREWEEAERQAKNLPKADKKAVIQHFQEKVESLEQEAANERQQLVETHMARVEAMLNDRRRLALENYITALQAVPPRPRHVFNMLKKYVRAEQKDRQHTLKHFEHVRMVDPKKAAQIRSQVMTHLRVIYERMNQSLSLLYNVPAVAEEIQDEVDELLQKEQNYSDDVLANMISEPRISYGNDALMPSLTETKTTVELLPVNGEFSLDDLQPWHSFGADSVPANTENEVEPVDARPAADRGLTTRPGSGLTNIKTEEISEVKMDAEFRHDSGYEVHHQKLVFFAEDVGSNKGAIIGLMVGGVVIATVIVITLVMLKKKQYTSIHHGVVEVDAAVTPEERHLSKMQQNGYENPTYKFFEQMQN

[10] = Metal chelating activity of the compound assessed as Mg2+ complex formation at 30 uM after 10 mins by UV-vis spectrometry; format: physicochemical
[11] = Metal chelating activity of the compound assessed as Ca2+ complex formation at 30 uM after 10 mins by UV-vis spectrometry; format: physicochemical
Cholinesterase [12] = molecular target: T1, Cholinesterase
Description: Inhibition of human recombinant BChE using butyrylthiocholine iodide as substrate after 5 mins by Ellman's method

[13] = Binding affinity to Cu2+ using CuCl2 at 30 uM after 45 mins
[14] = Binding affinity to Cu2+ using CuCl2 at 30 uM by isothermal titration calorimetry analysis

| Compound | solubility [1] | Ratio (Cholinesterase [2]) | inhibition [3] | EC50 [4] [µM] | Activity [5] | Activity [6] | Activity [7] | Activity [8] | inhibition [9] [%] | inhibition (Cholinesterase [2]) | Activity [10] | Activity [11] | IC50 (Cholinesterase [12]) [µM] | Activity [13] | Kd [14] [µM] | Ratio [3] |
| --- | --- | --- | --- | --- | --- | --- | --- | --- | --- | --- | --- | --- | --- | --- | --- | --- |
| O=C(NCC1CCCN(Cc2nc3ccccc3s2)C1)c1cc([N+](=O)[O-])c2cccnc2c1O (stereo not drawn) | soluble | 0.444 | inactive | 1330 | Active | Active | Active | Active | 53.4 |  |  |  |  |  |  |  |
| O=C(NCC1CCCN(c2nc3ccccc3s2)C1)c1cc([N+](=O)[O-])c2cccnc2c1O (stereo not drawn) | soluble |  | inactive | 3830 | Active | Active | Active | Active | 33.3 | inactive |  |  |  |  |  |  |
| COCCN(CC1CCN(Cc2nc3ccccc3o2)CC1)C(=O)c1cc([N+](=O)[O-])c2cccnc2c1O | soluble | 0.805 | inactive | 770 | Active | Active | Active | Active | 34.9 |  | Not Active | Not Active |  |  |  |  |
| COCCN(CC1CCN(Cc2nc3ccccc3s2)CC1)C(=O)c1cc([N+](=O)[O-])c2cccnc2c1O | soluble | 0.129 | inactive | 4140 | Active | Active | Active | Active | 44.2 |  |  |  | 2.14 |  |  |  |
| COCCN(CC1CCCN(C2Cc3ccccc3C2)C1)C(=O)c1ccc2ccccc2c1 (stereo not drawn) |  |  | inactive |  |  |  |  |  |  |  |  |  |  |  |  |  |
| COCCN(CC1CCCN(C2Cc3ccccc3C2)C1)C(=O)c1cc([N+](=O)[O-])c2cccnc2c1O (stereo not drawn) | soluble | 0.014 | inactive | 3450 | Active | Active | Active | Active | 20.1 |  | Not Active | Not Active | 0.215 | Active | 0.25 |  |
| O=C(NCC1CCCN(c2nc3ccccc3o2)C1)c1cc([N+](=O)[O-])c2cccnc2c1O (stereo not drawn) | soluble | 0.914 | inactive | 881 | Active | Active | Active | Active | 35.5 |  |  |  |  |  |  |  |
| O=c1c(O)c(-c2ccc(O)c(O)c2)oc2cc(O)cc(O)c12 [QUERCETIN] |  |  |  | 10.9 |  |  |  |  |  |  |  |  |  |  |  |  |
| O=C(NCC1CCCN(C2Cc3ccccc3C2)C1)c1cc([N+](=O)[O-])c2cccnc2c1O (stereo not drawn) | soluble | 0.747 |  | 524 | Active | Active | Active | Active | 28.7 |  |  |  |  |  |  | 0.641 |
